Structures are written as SMILES. “Also recorded” adds a separate entry of the source.

One series concerns HEK293 cells. As to the kind of experiment: HoPan treatment of mammalian HEK293 cells in combination with CoA or 4′-phosphopantetheine. It is filed as cell-based, human. The settings on record: HoPan treated HEK293 cells, compound added to the medium. How it is done:
HoPan treatment of mammalian HEK293 Cells in combination with CoA and 4′-phosphopantetheine treatment: HEK293 cells were maintained in dMEM (Invitrogen) supplemented with 10% fetal calf serum (Gibco) and antibiotics (penicillin/streptomycin, Invitrogen). For HoPan treatment, cells were cultured in custom made dMEM without vitamin B5 (Thermo Scientific) supplemented with dialyzed FCS (Thermo Scientific). CoA or PPanSH was added to HEK293 cells for the final concentration of 25 uM, either in the presence or absence of HoPan (0.5 mM) for 4 days, followed by analysis for phenotype and rescue efficiency of CoA and PPanSH.
Western blot analysis and Antibodies: For Western blot analysis, cells were collected and washed with phosphate buffer saline (PBS), followed by centrifugation. The cells were lysed and sonicated in 1X Laemmli Sample Buffer and boiled for 5 min with 5% β-mercaptoethanol (Sigma). Protein content was determined using DC protein assay (BioRad). Equal amounts of protein were loaded on a 10 or 12.5% SDS-PAGE gel, transferred onto PVDF membranes and blocked with 5% milk in PBS/0.1% Tween, followed by overnight incubation with primary antibodies. The primary antibodies used were: rabbit-anti dPANK/fbl, 1:4000 Eurogentec custom made as described previously5, mouse anti-tubulin (Sigma Aldrich Cat no: T5168, 1:5000), anti-acetyl-Histone3 (Active Motif Cat no: 39139, 1:2000), anti GAPDH (Fitzgerald Cat no: 10R-G109a, 1:10000), rabbit anti COASY (Abcam Cat no: AB129012, 1:1000). Appropriate HRP-conjugated secondary antibodies (Amersham) were used and detection was performed using enhanced chemi-luminescence (Pierce cat nog: 32106) and Amersham hyperfilm (GE Healthcare). Band intensities were quantified with Image-studio software.

Series [1] is described as follows: Mice CoA intravenous injection study. The settings on record: i.v. It is filed as in vivo, mouse. How it is done:
Sample preparation for mass spectrometry and instrumental parameters: Samples were briefly washed with ice-cold PBS solution. Samples were then sonicated thoroughly in 100 μl ice-cold milliQ (MQ) water containing 50 mM Tris(2-carboxyethyl)phosphine hydrochloride. Subsequently 100 ul saturated ammonium sulfate was added to each sample and centrifuged for 20 min at 10° C., 16100 rcf to collect supernatant. To 150 μl of supernatant, 15 ul of ammonium hydroxide (12.5%) was added and 20 μl was injected for LC-MS (liquid chromatography-mass spectrometry) analysis. For mouse plasma analysis, 50 ul of MQ water containing 50 mM Tris (2-carboxyethyl)phosphine hydrochloride was added to 50 ul of plasma and processed further as mentioned above. Appropriate dilution series of standard CoA, PPanSH and PPanSH(D4) was processed similarly before analysis. […] The flow was maintained at 1 ml/min with optimized mobile phase gradient of MQ water (A), 200 mM NH4Ac in 95/5 MQ water/acetonitrile adjusted to pH 4.5 with acetic acid (B), and acetonitrile (C). The separated analytes were detected with positive mode mass spectrometry under unit resolution. […] The absolute concentration was finally calculated using linear regression analysis of respective standard compounds, except CoA(D4) which was estimated indirectly using CoA standards. […]

The subject of series [2] is C. elegans pantothenate kinase (pnk-1) mutants. Description: C. elegans pnk-1 mutant motility and lifespan with CoA in the food. Format: in vivo, Caenorhabditis elegans. The note with it: CoA added to the food. How it is done: C. elegans Media and Strains: Standard culturing conditions were used for C. elegans maintenance at 20° C. N2 strain was used as a wild-type control. VC927, the PANK deletion mutant pnk-1 (ok1435)I/hT2[bli-4(e937) let-? (q782)qIs48](I; III), was obtained from the Caenorhabditis Genetics Center. To obtain synchronous cultures, worms were bleached with hypochlorite, and allowed to hatch in M9 buffer (3 g KH2PO4, 6 g Na2HPO4, 5 g NaCl, 1 ml 1 M MgSO4, H2O to 1 liter) overnight and cultured on standard Nematode Growth Medium (NGM) plates seeded with OP50 strain of Escherichia coli.
C. elegans Motility Assay: After synchronization, L1 C. elegans were grown on control NMG plates or NGM plates containing various concentrations of CoA. One-day old adults were placed in a drop of M9 buffer and allowed to recover for 30 sec. During the following 30 sec, the number of body bends was counted. A movement was scored as a bend when both the anterior and posterior ends of the animal turned to the same side. At least 15 worms were scored per condition and each experiment was repeated thrice.

Regarding `CC(C)(COP(=O)(O)OP(=O)(O)OC[C@H]1O[C@@H](n2cnc3c(N)ncnc32)[C@H](O)[C@@H]1OP(=O)(O)O)[C@@H](O)C(=O)NCCC(=O)NCCS` [CoA, Coenzyme A], in the series with HEK293 cells, the “rescue of HoPan-induced impaired histone acetylation” value is recorded as “rescued” and the “rescue of HoPan-induced reduction in cell count” value was “rescued”. Also, in the series on HEK293 cells (HPLC), the “intracellular CoA level” value is “restored the intracellular concentration of CoA”. Besides, in series [1] (30 minutes, HPLC), the “conversion of injected CoA in plasma” value is reported as “rapidly converted to 4′-phosphopantetheine”. Further, the “4′-phosphopantetheine in plasma after CoA injection” value in series [1] (6 hrs, mass spectrometry) is “elevated levels of PpanSH; also recorded: still present”. Besides, in series [2], the “lifespan of pnk-1 mutants” value is recorded as “improved these phenotypes significantly” and the “motility of pnk-1 mutants” value is “improved these phenotypes significantly”.

The record behind these values is US20220133753A1, “COMPOSITIONS AND METHODS USEFUL FOR TREATING DISEASES CHARACTERIZED BY INSUFFICIENT PANTOTHENATE KINASE ACTIVITY” (Comet Therapeutics, Inc., priority 2016, published 2022).
